Here are results for 37 compounds from US20030088061A1, “Materials and methods to modulate ligand binding/enzymatic activity of alpha/beta proteins containing an allosteric regulatory site” (priority 2000, published 2003).

Where “and” joins values, the source holds several entries; their conditions need not be identical. Identical values can stand only once. Like-named read-outs stand apart in the source and are kept apart here.

For one data set, the target named is T1, CD11b (Mac-1) (Homo sapiens, UniProt P11215).
T1 construct: endogenous in cells; host or cells: neutrophils from fresh human blood
The data set is described as follows: CD11b-mediated neutrophil adhesion to fibrinogen. The class given is cell-based. As to the method: The adhesion assay described above for CD18/CD11b-(Mac-1)-mediated adhesion of HL-60 cells to ICAM-1 was carried out with the following modifications. Each well was coated overnight at 4° C. with 50 μl of glycophorin (10 μg/ml), fibrinogen (5 μg/ml) or with anti-CD18 monoclonal antibody (22F12C, 5 μg/ml) and anti-CD11b monoclonal antibody (44AACB, 5 μg/ml) in 50 mM bicarbonate buffer (pH 9.6). Plates were blocked with 1% human serum albumin and no blocking antibody was used. Neutrophils were isolated from fresh heparin whole human blood by density gradient centrifugation and 100 μl of the cells (4×10^6 cells/ml) in adhesion buffer was added to each well. Plates were incubated at 37° C. for 10 minutes.

In a further data set the test system is Jurkat cells. Nature of the data set: Jurkat cell toxicity (CellTiter 96 Aqueous One Solution). It is filed as cell-based. The conditions noted are these: four hr or 24 hr incubation. As to the method: For 21 compounds, toxicity of Jurkat cells was assessed following a four hr or 24 hr incubation. […] A two-fold serial dilution series of each compound was tested in a concentration range of 40 μM to 0.15 μM.

For another data set, the target named is T2, α2β1 (Homo sapiens, UniProt P05556+P17301).
T2 construct: endogenous in cells; host or cells: Jurkat cells
The data set is described as follows: Jurkat cell adhesion to rat type I collagen. The class given is cell-based. The conditions noted are these: Jurkat cells, PMA. As to the method: Binding studies using monoclonal antibodies to each of these integrins has shown that Jurkat cell adhesion to rat type I collagen is mediated predominantly through interaction with alpha2. […] The assay was carried out using a modification of a procedure previously described [Sadhu, et al., supra]. Immunlon 4 plates (Dynex Technologies, Chantilly, Va.) were coated overnight at 4° C. with (i) 50 μl rat type I collagen (Sigma) (20 μg/ml in CMF-PBS), (ii) anti-beta1 monoclonal antibody 3S3 (5 μg/ml) in bicarbonate buffer, pH 9.6, (iii) or bicarbonate buffer alone. Plates were washed once with 200 μl/well D-PBS and blocked with 1% BSA (100 μl/well) in D-PBS for 1 hr at room temperature. […] Adherent cells were fixed by additional of 50 μl/well 14% glutaraldehyde in D-PBS and incubation at room temperature for 2 hr. The plates were washed with dH2O and stained with 50 μl/well 0.5% crystal violet in 10% ethanol for 5 min at room temperature. The plates were washed in several changes of dH2O, after which 70% ethanol was added. Adherent cells were quantitated by determining absorbance at 570 nm and 410 nm using a […] 250 microplate spectrophotometer system (Molecular Devices, Sunnyvale Calif.). The percentage of cell binding was determined using the formula below. [formula] Data was normalized using the formula: [formula] […] These 21 compounds were further analyzed for specificity and toxicity. […] The assay was carried out in a manner similar to the collagen adhesion assay described above except that […] with VCAM-1/Ig instead of collagen. Binding to VCAM-1 was dependent on surface expression of α4β1.

Another data set addresses α4β1 (Homo sapiens, UniProt P05556+P13612). The data set is described as follows: Jurkat cell binding to immobilized VCAM-1/Ig. The class given is cell-based. Also noted: endogenous in cells; host or cells: Jurkat cells. The conditions noted are these: Jurkat cells; tested 0.15 μM to 20 μM; read-out: α7β1/VCAM EC50. As to the method:
These 21 compounds were further analyzed for specificity and toxicity. […] The assay was carried out in a manner similar to the collagen adhesion assay described above except that […] with VCAM-1/Ig instead of collagen. Binding to VCAM-1 was dependent on surface expression of α4β1.

In data set [1] the target is iC3b (Homo sapiens (Human)) (UniProt P01024). The data set is described as follows: adhesion of COS-7 transfectants to immobilized iC3b.
For data set [2], the target named is ICAM-1/Fc (Homo sapiens (Human)) (UniProt P05362). The data set is described as follows: adhesion of COS-7 transfectants to immobilized ICAM-1/Fc.
The mark [3] stands for this setting: read-out: IC50, neutrophil adhesion to fibrinogen.
[4] abbreviates: after SAR efforts based on Cmpd S, read-out: IC50 (inhibition potency), neutrophil adhesion to fibrinogen.

The IC50 is the concentration that gives 50% inhibition.

Sequence of α4β1 (P13612 34-1032): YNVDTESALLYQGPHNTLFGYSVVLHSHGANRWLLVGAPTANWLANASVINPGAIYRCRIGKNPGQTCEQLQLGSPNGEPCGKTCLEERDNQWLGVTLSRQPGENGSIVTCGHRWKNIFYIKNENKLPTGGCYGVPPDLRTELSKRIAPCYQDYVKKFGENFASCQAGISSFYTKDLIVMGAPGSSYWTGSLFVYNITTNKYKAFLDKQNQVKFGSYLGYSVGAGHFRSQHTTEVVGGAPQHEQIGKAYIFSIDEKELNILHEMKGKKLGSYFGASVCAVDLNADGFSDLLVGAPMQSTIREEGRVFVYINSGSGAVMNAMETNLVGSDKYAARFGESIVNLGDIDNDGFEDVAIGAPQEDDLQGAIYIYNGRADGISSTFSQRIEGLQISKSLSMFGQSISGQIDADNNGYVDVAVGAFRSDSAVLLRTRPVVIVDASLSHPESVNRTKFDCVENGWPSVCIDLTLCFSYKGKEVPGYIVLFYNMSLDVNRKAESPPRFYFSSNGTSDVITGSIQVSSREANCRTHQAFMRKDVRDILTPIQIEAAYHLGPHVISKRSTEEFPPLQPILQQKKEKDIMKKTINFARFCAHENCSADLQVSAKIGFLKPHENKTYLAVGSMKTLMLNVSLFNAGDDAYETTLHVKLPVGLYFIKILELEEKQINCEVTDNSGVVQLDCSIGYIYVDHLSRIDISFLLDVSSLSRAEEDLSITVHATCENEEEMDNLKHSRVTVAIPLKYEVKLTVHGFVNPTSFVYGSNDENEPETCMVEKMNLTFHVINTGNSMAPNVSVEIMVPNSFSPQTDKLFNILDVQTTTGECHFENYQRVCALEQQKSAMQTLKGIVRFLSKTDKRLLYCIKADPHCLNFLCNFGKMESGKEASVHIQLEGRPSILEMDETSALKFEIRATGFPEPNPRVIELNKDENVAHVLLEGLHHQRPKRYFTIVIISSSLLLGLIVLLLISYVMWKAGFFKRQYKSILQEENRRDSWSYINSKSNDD
Sequence of α4β1 (P05556 21-798): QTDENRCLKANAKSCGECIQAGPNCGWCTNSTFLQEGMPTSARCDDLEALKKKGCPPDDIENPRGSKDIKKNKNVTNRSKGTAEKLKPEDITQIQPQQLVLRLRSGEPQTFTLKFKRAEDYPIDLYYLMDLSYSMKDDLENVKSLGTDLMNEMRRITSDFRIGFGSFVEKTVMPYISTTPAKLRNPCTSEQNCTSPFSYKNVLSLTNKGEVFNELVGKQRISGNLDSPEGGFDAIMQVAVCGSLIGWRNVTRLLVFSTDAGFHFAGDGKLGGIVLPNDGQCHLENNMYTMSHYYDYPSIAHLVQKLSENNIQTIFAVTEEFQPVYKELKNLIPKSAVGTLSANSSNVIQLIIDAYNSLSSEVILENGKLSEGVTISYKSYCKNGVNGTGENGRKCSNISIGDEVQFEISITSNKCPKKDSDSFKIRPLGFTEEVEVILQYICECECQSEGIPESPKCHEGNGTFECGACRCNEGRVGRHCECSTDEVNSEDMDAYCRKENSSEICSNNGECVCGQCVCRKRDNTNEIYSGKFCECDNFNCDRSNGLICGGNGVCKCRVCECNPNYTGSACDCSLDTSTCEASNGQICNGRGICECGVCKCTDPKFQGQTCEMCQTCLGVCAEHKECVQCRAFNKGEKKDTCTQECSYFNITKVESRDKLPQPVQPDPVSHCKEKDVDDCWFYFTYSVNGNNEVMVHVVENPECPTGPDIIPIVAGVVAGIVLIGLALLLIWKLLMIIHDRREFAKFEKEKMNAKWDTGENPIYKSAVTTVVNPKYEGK
T2 sequence (P17301 30-1181): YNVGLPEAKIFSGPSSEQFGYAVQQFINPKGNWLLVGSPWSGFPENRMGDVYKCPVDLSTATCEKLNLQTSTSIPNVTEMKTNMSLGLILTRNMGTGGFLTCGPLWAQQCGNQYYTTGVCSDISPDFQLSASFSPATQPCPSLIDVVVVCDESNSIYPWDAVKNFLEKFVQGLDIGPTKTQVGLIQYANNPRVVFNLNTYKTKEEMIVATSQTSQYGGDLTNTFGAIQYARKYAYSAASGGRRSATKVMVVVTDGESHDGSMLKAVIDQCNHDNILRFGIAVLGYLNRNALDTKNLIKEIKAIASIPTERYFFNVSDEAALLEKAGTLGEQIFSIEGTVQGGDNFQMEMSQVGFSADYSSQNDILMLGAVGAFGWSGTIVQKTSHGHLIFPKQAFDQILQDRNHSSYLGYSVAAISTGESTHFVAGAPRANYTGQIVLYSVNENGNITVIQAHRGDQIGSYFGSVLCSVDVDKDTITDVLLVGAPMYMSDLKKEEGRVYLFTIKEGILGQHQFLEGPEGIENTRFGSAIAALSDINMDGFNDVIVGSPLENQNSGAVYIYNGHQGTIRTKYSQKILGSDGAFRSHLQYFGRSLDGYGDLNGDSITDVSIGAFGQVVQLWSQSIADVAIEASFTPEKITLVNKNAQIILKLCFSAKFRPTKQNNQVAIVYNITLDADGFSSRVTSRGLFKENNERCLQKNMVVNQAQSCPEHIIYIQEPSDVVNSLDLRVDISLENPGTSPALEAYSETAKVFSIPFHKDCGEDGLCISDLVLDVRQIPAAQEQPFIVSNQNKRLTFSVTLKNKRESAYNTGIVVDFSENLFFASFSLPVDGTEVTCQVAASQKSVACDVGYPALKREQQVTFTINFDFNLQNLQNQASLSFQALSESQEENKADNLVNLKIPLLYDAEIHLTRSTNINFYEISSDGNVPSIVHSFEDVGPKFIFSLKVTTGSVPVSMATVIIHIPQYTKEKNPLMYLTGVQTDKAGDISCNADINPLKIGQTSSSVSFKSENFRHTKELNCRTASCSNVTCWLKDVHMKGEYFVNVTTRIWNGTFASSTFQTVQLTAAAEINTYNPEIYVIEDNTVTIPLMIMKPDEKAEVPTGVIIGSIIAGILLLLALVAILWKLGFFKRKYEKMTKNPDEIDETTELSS
T2 sequence (P05556 21-798 partner): as the sequence (P05556 21-798) above

Regarding `O=C(/C=C/c1ccc(Sc2ccccc2CN2CCOCC2)c(Cl)c1)N1CCOCC1` [Cmpd L], the IC50 at CD11b (Mac-1) (setting [3]) is below 10 µM.
`O=C(/C=C/c1ccc(Sc2cccc(N3CCC(N4CCCC4)CC3)c2)c(Cl)c1Cl)NCCCN1CCCC1=O` [Cmpd J]: the “TOXICITY LD50” value in the data set with Jurkat cells is above 40 µM. Besides, the EC50 on α2β1 is 8 µM; on α4β1, above 20 µM.
Turning to `CC(CN(C)C)NCc1ccccc1Sc1ccc(C(C)(C)C)cc1` (stereo not drawn) [Cmpd AA], the IC50 at CD11b (Mac-1) (setting [4]) was below 0.2 µM.
“CD11b E336A / CD18 (from UniProt P11215) (receptor)”: the results for the binding, % in data set [1] and in data set [2] were 4.3% and 0.7%, respectively.
“CD11b I332A / CD18 (from UniProt P11215) (receptor)” displayed a binding, % in data set [1] of 205%. Moreover, the binding, % of wildtype levels (% of wildtype levels) in data set [2] turned out to be 123.
In the same order, the values of “CD11b V254A / CD18 (from UniProt P11215) (receptor)” are 147% and 115.
With `N[C@@H]1Cc2ccccc2O[C@@H]1c1ccc2c(c1)CCO2` [Cmpd Y], the “TOXICITY LD50” value in the data set with Jurkat cells came out at 25 µM. The EC50 at α2β1 was 7 µM; at α4β1 it was above 20 µM.
The corresponding values for `CN1CCCN(C(=O)/C=C/c2ccc(Sc3ccc4c(ccn4C)c3)c(Cl)c2Cl)CC1.O=C(O)C(F)(F)F` [Cmpd T] are 25 µM, 4 µM and 15 µM.
As to `CN(C)CCNCc1ccccc1Sc1ccc(Cl)cc1Cl` [Cmpd S], the IC50 on CD11b (Mac-1) (setting [3]) was < 10 µM and 1 µM.
Same read-out and setting: next, `CN(C)CCN(Cc1ccc(Sc2ccc(Cl)cc2Cl)c(Cl)c1)C(=O)c1ccc(/C=C/C(=O)N2CCOCC2)cc1Cl` [Cmpd P]: below 10 µM.
Same read-out and setting: next, `CN(C)CCN(Cc1ccccc1Sc1ccc(Cl)cc1Cl)C(=O)c1ccc(/C=C/C(=O)N2CCOCC2)cc1Cl` [Cmpd Q]: below 10 µM.
The same measure, in the same setting: in the case of `COC(=O)N1CCN(C(=O)/C=C/c2ccc(Sc3ccccc3C(C)C)c([N+](=O)[O-])c2)CC1` [Cmpd V] it was below 10 µM.
As to “CD11b Q327A / CD18 (from UniProt P11215) (receptor)”, the binding, % in data set [1] came out at 140%. This compound also displayed a binding, % of wildtype levels (% of wildtype levels) in data set [2] of 105.
On to `CN(C)CCCCNCc1ccccc1Sc1ccc(Cl)cc1Cl` [Cmpd O], for which the IC50 at CD11b (Mac-1) (setting [3]) is below 10 µM.
As to `CN(C)CCCNCc1ccccc1Sc1ccc2ccccc2c1.O=C(O)C(F)(F)F.O=C(O)C(F)(F)F` [Cmpd AI], the “TOXICITY LD50” value in the data set on Jurkat cells was 33 µM. Besides, the EC50 at α2β1 is 6 µM; at α4β1 it was above 20 µM.
As to `CN(C)CCCCNCc1ccccc1Sc1c(Cl)cccc1Cl` [Cmpd AC], the IC50 on CD11b (Mac-1) (setting [4]) is below 0.2 µM.
Turning to `Nc1ccc(SCc2ccc(Cl)cc2Cl)c(Cl)c1` [Cmpd X], the “TOXICITY LD50” value in the data set with Jurkat cells turned out to be 30 µM. Besides, the EC50 on α2β1 is 8 µM; at α4β1, above 20 µM.
With `CSc1ccc(Sc2ccccc2CNCCCN(C)c2ccccc2)cc1.O=C(O)C(F)(F)F.O=C(O)C(F)(F)F` [Cmpd AL], the “TOXICITY LD50” value with Jurkat cells is 20 µM. The EC50 is 8 µM at α2β1 and above 20 µM at α4β1.
In the same order, the values of `CN(CCCNCc1ccccc1Sc1cccc(C(F)(F)F)c1)c1ccccc1.O=C(O)C(F)(F)F.O=C(O)C(F)(F)F` [Cmpd AK] are 35 µM, 9 µM and above 20 µM.
In the same order, the values of `O=C(/C=C/c1ccc(Sc2ccc3c(c2)OCCO3)c([N+](=O)[O-])c1)N1CCNCC1` [Cmpd B] are above 40 µM, 17 µM and above 20 µM.
Take `CCN1CCCC1CNCc1ccccc1Sc1ccc2ccccc2c1.O=C(O)C(F)(F)F.O=C(O)C(F)(F)F` (stereo not drawn) [Cmpd AG]: the “TOXICITY LD50” value in the data set on Jurkat cells amounted to 35 µM. In addition, the EC50 was 7 µM on α2β1 and above 20 µM at α4β1.
As for `CN(C)CCCCNCc1ccc(Sc2ccc(Cl)cc2Cl)c(Cl)c1` [Cmpd N], on CD11b (Mac-1) (setting [3]), the IC50 was below 10 µM.
`FC(F)(F)Oc1ccc(Sc2ccccc2CNC2CCN(Cc3ccccc3)CC2)cc1.O=C(O)C(F)(F)F.O=C(O)C(F)(F)F` [Cmpd AJ]: the “TOXICITY LD50” value with Jurkat cells was 38 µM. Moreover, the EC50 at α2β1 is 8 µM; on α4β1 it was above 20 µM.
In the same order, the values of `O=C(O)C(F)(F)F.O=C(O)C(F)(F)F.c1ccc(CN2CCC(NCc3ccccc3Sc3ccc4ccccc4c3)CC2)cc1` [Cmpd AF] are 35 µM, 6 µM and above 20 µM.
The corresponding values for `CC(C)(C)c1ccc(Sc2ccccc2CNCCN2CCCC2)cc1.O=C(O)C(F)(F)F.O=C(O)C(F)(F)F` [Cmpd AB] are above 40 µM, 13 µM and above 20 µM.
The corresponding values for `CC(C)c1ccc(Sc2ccc(N)cc2Cl)cc1` [Cmpd E] are above 40 µM, 16 µM and above 20 µM.
For the compound `Cl.O=C1CCCN1CCCNCc1ccc(Sc2cccc(Cl)c2Cl)c(Cl)c1` [Cmpd M], the “TOXICITY LD50” value in the data set with Jurkat cells was found to be 25 µM. The EC50 on α2β1 was 8 µM; on α4β1, above 20 µM.
In the same order, the values of `O=C(O)C(F)(F)F.O=C(O)C(F)(F)F.c1ccc(Sc2ccc3ccccc3c2)c(CNCCN2CCCC2)c1` [Cmpd AH] are 38 µM, 9 µM and above 20 µM.
Take “CD11b F333A / CD18 (from UniProt P11215) (receptor)”: the binding, % was found to be 4.9% in data set [1] and 1.1% in data set [2].
For the compound `CCN1CCN(c2cc(-c3ccc(Sc4ccccc4C(C)C)c(C(F)(F)F)c3)ccn2)CC1.O=C(O)C(F)(F)F.O=C(O)C(F)(F)F` [Cmpd AN], the “TOXICITY LD50” value with Jurkat cells is above 40 µM. The EC50 was 17 µM on α2β1 and above 20 µM on α4β1.
In the same order, the values of `CN(CCCNCc1ccccc1Sc1c(Cl)cccc1Cl)c1ccccc1.O=C(O)C(F)(F)F.O=C(O)C(F)(F)F` [Cmpd AD] are 3 µM, 2 µM and above 20 µM.
The corresponding values for `CC(=O)N1CCN(C(=O)C2CC2c2ccc(Sc3ccccc3C(C)C)c(Cl)c2Cl)CC1` (stereo not drawn) [Cmpd G] are above 40 µM, 16 µM and above 20 µM.
As to `O=C(/C=C/c1ccc(Sc2ccc(Cl)cc2Cl)c([N+](=O)[O-])c1)N1CCNCC1` [Cmpd A], the “TOXICITY LD50” value in the data set on Jurkat cells is above 40 µM. Besides, the EC50 at α2β1 was 14 µM; at α4β1, 17 µM.
The corresponding values for `CN(CCCNCc1ccccc1Sc1ccc2ccccc2c1)c1ccccc1.O=C(O)C(F)(F)F.O=C(O)C(F)(F)F` [Cmpd AE] are 30 µM, 7 µM and above 20 µM.
`CC(C)c1ccccc1Sc1ccc(/C=C/C(=O)N2CCN(C(=O)OC(C)(C)C)C(CO)C2)cc1[N+](=O)[O-]` (stereo not drawn) [Cmpd F]: on CD11b (Mac-1) (setting [3]), the IC50 was below 10 µM.
Still for that read-out and setting: next, `CN(C)CCNCc1ccc(Sc2ccc(Cl)cc2Cl)c(Cl)c1` [Cmpd R]: below 10 µM.
`CN1CCN(C(=O)/C=C/c2ccc(Sc3ccc(Cl)cc3Cl)c(Cl)c2)CC1` [Cmpd U]: in the data set with Jurkat cells, the “TOXICITY LD50” value is above 40 µM. The EC50 on α2β1 was 15 µM; on α4β1, above 20 µM.
